Source: patent US20220071944A1, “Combination Treatment for Solid Tumors Using Docetaxel and a CYP3A Inhibitor” (Modra Pharmaceuticals B.V., priority 2018, published 2022)
Like-named read-outs stand apart in the source and are kept apart here.

Columns and labels:
[1] = Weekly intravenous docetaxel 35 mg/m2 pharmacokinetics (Baker et al. 2004); format: in vivo, human; conditions: 35 mg/m2 in 0.5 h vs oral in patients with solid tumors (not prostate)
[2] = Phase IB/IIA trial M17DOC in mCRPC: docetaxel plasma pharmacokinetics; set-up: species or system human; conditions: in vivo, po
Experimental: A multicenter clinical phase IB/IIA study was conducted in mCRPC (M17DOC), wherein ModraDoc006, an oral docetaxel formulation was combined with ritonavir (ModraDoc006/r), in metastasized castration-resistant prostate cancer (mCRPC).
The study included patients diagnosed with metastasized castration-resistant prostate cancer (mCRPC), dosed in a bi-daily once weekly (BIDW) dosing schedule at 4 dose levels (see table below).

[3] = every three weeks IV; cited from earlier work
[4] = IV docetaxel AUC in mCRPC vs other tumors (De Vries Schultink et al. meta-analysis); format: in vivo, human
[5] = weekly docetaxel 35 mg/m2 as 0.5 h intravenous infusion; cited from earlier work

CC(=O)O[C@@]12CO[C@@H]1C[C@H](O)[C@@]1(C)C(=O)[C@H](O)C3=C(C)[C@@H](OC(=O)[C@H](O)[C@@H](NC(=O)OC(C)(C)C)c4ccccc4)C[C@@](O)([C@@H](OC(=O)c4ccccc4)[C@H]21)C3(C)C [docetaxel]
CMAX of intravenous docetaxel relative to oral ModraDoc006/r 30-20/100-100 [1]: ten-fold higher
docetaxel clearance in mCRPC patients vs patients with other solid tumors [2]: higher clearance
q3w AUC of IV docetaxel in mCRPC patients [3]: 1820 ng·h/mL
ratio of AUCs for IV docetaxel in mCPRC patients vs other tumors ([4]; 1820/3300): 55%
AUC ([4]; male, human, in vivo, iv, weekly equivalent, mCRPC, read-out: weekly AUC of IV docetaxel in mCRPC patients (q3w AUC divided by 3)): ~600 ng·h/mL
AUC [5]: 480 ± 410 ng·h/mL
CMAX [5]: 1930 ± 600 ng/mL
